{"source": "paper PMC4103896", "about": "“Characterization and Evolutionary Implications of the Triad Asp-Xxx-Glu in Group II Phosphopantetheinyl Transferases” (PLoS ONE, 2014)", "format_in_all_cases": "biochemical", "key": {"[1]": {"biological_target": "T1, SchPPT (Streptomyces chattanoogensis, UniProt H9N836)", "T1 construct": "full-length group II (Sfp-type) PPTase; SchPPT cloned in pET28a (pHJ0024), E. coli; N-terminal His6 stated for the mutants", "T1 sequence (H9N836 entry or part of it)": "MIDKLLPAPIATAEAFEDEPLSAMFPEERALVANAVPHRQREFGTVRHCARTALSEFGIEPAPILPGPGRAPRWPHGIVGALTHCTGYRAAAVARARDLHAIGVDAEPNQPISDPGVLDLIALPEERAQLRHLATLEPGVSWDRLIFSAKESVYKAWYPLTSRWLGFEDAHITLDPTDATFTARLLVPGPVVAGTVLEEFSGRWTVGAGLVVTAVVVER", "experiment": "in vitro phosphopantetheinylation of scn ACP0-2, LC-MS", "conditions": "2 mM CoA, 200 uM scn ACP0-2, 20 uM PPTase, 1.25 mM MgCl2, pH 7.5, 25 °C, 30 min"}, "[2]": {"biological_target": "T2, Sppt (Synechocystis sp. PCC 6803, UniProt Q55185)", "T2 construct": "gene slr0495; full-length", "experiment": "in vitro phosphopantetheinylation of sch FAS ACP, HPLC", "conditions": "2 mM CoA, 200 uM sch FAS ACP, 20 uM Sppt, 1.25 mM MgCl2, pH 7.5, 25 °C, 30 min"}, "[3]": {"biological_target": "T3, Sppt (Synechocystis sp. PCC 6803, UniProt Q55185, Q112E)", "T3 construct": "gene slr0495; full-length", "T3 sequence (Q55185 whole entry Q112E)": "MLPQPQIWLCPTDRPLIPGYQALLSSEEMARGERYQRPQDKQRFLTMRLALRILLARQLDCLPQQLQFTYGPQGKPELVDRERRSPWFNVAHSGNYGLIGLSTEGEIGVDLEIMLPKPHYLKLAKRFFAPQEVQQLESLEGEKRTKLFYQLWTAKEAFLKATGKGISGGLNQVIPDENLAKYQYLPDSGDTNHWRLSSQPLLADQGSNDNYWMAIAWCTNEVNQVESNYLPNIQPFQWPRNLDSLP", "experiment": "in vitro phosphopantetheinylation of sch FAS ACP, HPLC", "conditions": "2 mM CoA, 200 uM sch FAS ACP, 20 uM Sppt, 1.25 mM MgCl2, pH 7.5, 25 °C, 30 min"}}, "data": [{"smiles": "CC(C)(COP(=O)(O)OP(=O)(O)OC[C@H]1O[C@@H](n2cnc3c(N)ncnc32)[C@H](O)[C@@H]1OP(=O)(O)O)[C@@H](O)C(=O)NCCC(=O)NCCS", "note": "[CoA]", "values": [{"measurement": "in vitro phosphopantetheinylation of scn ACP0-2, LC-MS", "setting": "[1]", "result": "only wild type SchPPT but neither of the two mutants phosphopantetheinylated scn ACP0-2"}, {"measurement": "in vitro phosphopantetheinylation of sch FAS ACP, HPLC", "setting": "[2]", "result": "After incubation of sch FAS ACP with CoA in the presence of Sppt"}, {"measurement": "in vitro phosphopantetheinylation of sch FAS ACP, HPLC", "setting": "[3]", "result": "After incubation of sch FAS ACP with CoA in the presence of SpptQ112E"}]}]}
